Data from US20230226092A1, “CANCER […] ON G[…]” (NuCana plc, priority 2015, published 2023).

Test system: advance progressive cancers that are refractory to, or have relapsed on, all conventional therapies
Experiment: ProGem1 dose escalation clinical study: clinical response (RECIST 1.1, tumour markers)
Type: in vivo, human
Parameters: CA125 level / CA19.9 / CEA / CA125 / Tumour volume / CA 15.3 tumour marker / inhibin B: unit not given here
Conditions: for CA 15.3 tumour marker: 726 at base; for inhibin B: 1,038 prior to study entry
From the text: The following data were generated in clinical studies of NUC-1031 in human patients with advance progressive cancers that are refractory to, or have relapsed on, all conventional therapies that have been used to date. The results clearly illustrate the ability of NUC-1031 to successfully treat refractory cancers.
Although the primary objectives of the dose escalation part of the study were to determine the Recommended Phase II Dose (RP2D) and safety profile, secondary objectives included determining the PK profile, however effective treatment of patients with a range of refractory cancers has also been observed as part of this study.
A total of 68 patients have been entered into this dose escalation study, of which 49 were evaluable for clinical response in that they have received at least 2 Cycles of NUC-1031 and were therefore eligible for a RECIST 1.1 assessment.
NUC-1031 was administered as a 5 to 30 minute intravenous slow bolus injection. • Schedule A: NUC-1031 was administered on days 1, 8, 15 of a 4 weekly Cycle. • Schedule B: NUC-1031 was administered on days 1, 5, 8, 12, 15, 19, of a 4 weekly Cycle.
Evaluable patients were patients that received ≥ 2 Cycles of NUC-1031 and were therefore eligible for a RECIST 1.1 assessment at the end of Cycle 2. Where the disease response duration, measured in months, is followed by a “+” this indicates ongoing disease control as of the latest cut-off date.

[1] = evaluable patients n = 49, RECIST 1.1

Substance: gemcitabine-[phenyl-benzoxy-L-alaninyl)]-phosphate [NUC-1031]
- Reduction in tumour volume (Patient 037, pancreatic cancer, CT scan on 29th April 2014): 30%
- Reduction in tumour volume (Patient 037, pancreatic cancer, end of Cycle 2 CT scan): 18.4%
- CEA (Patient 037, pancreatic cancer, from 536 at baseline): 42
- CA19.9 (Patient 037, pancreatic cancer, from 15,000 at baseline): 4,000
- Response to RECIST (Patient 038, ovarian cancer, 900 mg/m^2 weekly): Progressive Disease
- Increase in tumour volume (Patient 038, ovarian cancer, end of Cycle 2 scan): 25%
- Disease response duration (Patient 040, cholangiocarcinoma): 4 months
- CA19.9 (Patient 040, cholangiocarcinoma, 4th June, from 664 at baseline): 155
- Response to RECIST (Patient 040, cholangiocarcinoma, 1,000, then 900 mg/m^2 weekly): Stable Disease
- Tumour volume (Patient 040, cholangiocarcinoma, end of Cycle 2 CT scan, from 85 at base): 82.1
- Disease response duration (Patient 041, breast cancer): 4 months
- Symptomatic benefit (Patient 041, breast cancer): managed to reduce opioids significantly
- CA 15.3 tumour marker (Patient 041, breast cancer, 19th May 2014): 824
- Response to RECIST (Patient 041, breast cancer, 900, then 825 mg/m^2 weekly): Stable Disease
- CA 15.3 tumour marker (Patient 041, breast cancer, at C2): 845
- Response to RECIST (Patient 042, cholangiocarcinoma, 900 mg/m^2 weekly): Progressive Disease
- Reduction in tumour volume of primary target lesion (Patient 042, cholangiocarcinoma, end of Cycle 2 CT scan): 9%
- Disease response duration (Patient 043, ovarian cancer): 13 months
- PET scan finding (Patient 043, ovarian cancer, 7th April 2014): stable disease and SUV had gone down in some target tumours
- CA125 (Patient 043, ovarian cancer, 15th July, from 1,099 at baseline): 910
- Response to RECIST (Patient 043, ovarian cancer, 900, then 750 mg/m^2 weekly): Stable Disease
- CA125 (Patient 043, ovarian cancer, beginning of Cycle 2, from 1.099 at baseline): 783
- Reduction in tumour volume from baseline (Patient 043, ovarian cancer, end of Cycle 6 CT scan): 10%
- Volume of fluid drained from pleural effusion (Patient 043, ovarian cancer, was 300ml per week): 150 ml per week
- Disease response duration (Patient 044, lung cancer): 5 months
- Response to RECIST (Patient 044, lung cancer (adenocarcinoma), 900, then 825 mg/m^2 weekly): Stable Disease
- Reduction in tumour volume (Patient 044, lung cancer, end of Cycle 2 CT scan): 10%
- Disease response duration (Patient 046, adrenal carcinoma): 11 months
- Response to RECIST (Patient 046, adrenal carcinoma, 1,000, then 900, 750, 625 mg/m^2 weekly): Stable Disease
- Reduction in tumour volume from baseline (Patient 046, adrenal carcinoma, end of Cycle 6 CT scan): 12.6%
- Disease response duration (Patient 048, ovarian cancer): 8 months
- Response to RECIST (Patient 048, ovarian cancer (granulosa cell tumour), 1,000, then 900, 825, 750, 625 mg/m^2 weekly): Stable Disease
- inhibin B (Patient 048, ovarian cancer, August): 1148
- inhibin B (Patient 048, ovarian cancer, July 2014): 1,106
- inhibin B (Patient 048, ovarian cancer, September): 1053
- PET scan finding (Patient 048, ovarian cancer, end of Cycle 1): stable disease and reduction in SUV at target sites
- Symptomatic benefit (Patient 050 (202), oesophageal cancer): improvement in their dysphagia
- Response to RECIST (Patient 050 (202), oesophageal cancer, 900 mg/m^2 weekly): Progressive Disease
- Response to RECIST (Patient 051 (203), anal cancer, 900 mg/m^2 weekly): Progressive Disease
- Disease response duration (Patient 052 (204), oesophageal cancer): 5 months
- Response to RECIST (Patient 052 (204), oesophageal cancer, 900, then 825 mg/m^2 weekly): Stable Disease
- Response to RECIST (Patient 053 (205), colon cancer, 900 mg/m^2 weekly): Progressive Disease
- Response to RECIST (Patient 055 (207), ovarian cancer, 900, then 825, 625 mg/m^2 weekly): Stable Disease
- CA125 (Patient 055 (207), ovarian cancer, January 2015, 36 at baseline): 24
- Reduction in tumour volume from baseline (Patient 055 (207), ovarian cancer, end of Cycle 6 CT scan): 18%
- Disease response duration (Patient 055 (207), ovarian cancer, ongoing): ≥ 10 months
- Disease response duration (Patient 057 (209), ovarian cancer): 5 months
- Response to RECIST (Patient 057 (209), ovarian cancer, 900, then 825, 750 mg/m^2 weekly): Stable Disease
- Reduction in tumour volume from baseline (Patient 057 (209), ovarian cancer, end of Cycle 4 CT scan): 10%
- Disease response duration (Patient 058 (210), lung cancer): 4 months
- Response to RECIST (Patient 058 (210), lung cancer, 825, then 750 mg/m^2 weekly): Stable Disease
- Disease response duration (Patient 059 (211), cervical cancer): 7 months
- Response to RECIST (Patient 059 (211), cervical cancer, 825, then 750, 625 mg/m^2 weekly): Stable Disease
- Response to RECIST (Patient 060 (212), pancreatic cancer, 825 mg/m^2 weekly): Progressive Disease
- Disease response duration (Patient 061 (213), colorectal cancer): 3 months
- Response to RECIST (Patient 061 (213), colorectal cancer, 825 mg/m^2 weekly): Stable Disease
- Reduction in tumour volume (Patient 061 (213), colorectal cancer, end of Cycle 2 CT scan): 2%
- Disease response duration (Patient 063 (215), ovarian cancer): 3 months
- Response to RECIST (Patient 063 (215), ovarian cancer, 825, then 750, 625 mg/m^2 weekly): Stable Disease
- Response to RECIST (Patient 064 (216), trophoblastic cancer, 825 mg/m^2 weekly): Progressive Disease
- Response to RECIST (Patient 066 (218), colorectal cancer, 825, then 750, 625 mg/m^2 weekly): Stable Disease
- Reduction in tumour volume from baseline (Patient 066 (218), colorectal cancer, CT scan on 30th December): 16%
- Disease response duration (Patient 066 (218), colorectal cancer, ongoing): ≥ 8 months
- Increase from baseline (EOS CT scan) (Patient 067 (219), osteosarcoma): 1%
- Response to RECIST (Patient 067 (219), osteosarcoma, 825, then 750 mg/m^2 weekly): Stable Disease
- Disease response duration (Patient 067 (219), osteosarcoma, ongoing): ≥ 7 months
- Response to RECIST (Patient 068 (220), lung cancer, 825 mg/m^2 weekly): Progressive Disease
- Response to RECIST (Patient 069 (221), colorectal cancer, 825, then 750, 675, 625, 500 mg/m^2 weekly): Stable Disease
- PET scan finding (Patient 069 (221), colorectal cancer, PET scan on 30/10): Partial Response
- Reduction in tumour volume from baseline (Patient 069 (221), colorectal cancer, end of C2 CT scan): 11%
- Reduction in tumour volume from baseline (Patient 069 (221), colorectal cancer, end of C4 CT scan): 26%
- Disease response duration (Patient 069 (221), colorectal cancer, ongoing): ≥ 7 months
- Clinical examination of metastases (Patient 069 (221), colorectal cancer, pre C2 examination): cutaneous and sub cutaneous metastases were greatly reduced or almost vanished
- Best Overall Response: Partial Responses, patients (%) [1]: 5 (10%)
- Best Overall Response: Progressive Disease, patients (%) [1]: 11 (22%)
- Best Overall Response: Stable Disease, patients (%) [1]: 33 (67%)
